Patent publication EP0684766B1, “HERBICIDAL COMPOSITIONS” (Hoechst Schering AgrEvo GmbH, priority 1993, dated 1994)

Key:
Galium aparine = assay: Post-emergent field test on winter cereals, % control of weeds; settings: for % Control GALAP: post-emergent
Experimental: (§1) The Examples are field tests carried out post-emergently in the Autumn on winter cereals. The compositions are evenly applied to the plants as suspensions using a water amount of 500 litres per hectare. […] The evaluation of the individual components (a) and (b) as well as their mixtures was carried out on a scale where 0 is no damage and 100 is complete destruction of the plants.

Viola arvensis = assay: as above; settings: for % Control VIOLA: post-emergent
Experimental: as §1

Stellaria media = assay: as above; settings: for % Control STEME: post-emergent
Experimental: as §1

Matricaria chamomilla = assay: as above; settings: for % Control MATCH: post-emergent
Experimental: as §1

plants = assay: Herbicidal activity of the phosphonate applied on its own; assay type: in vivo
[1] = Galium aparine, post-emergence, 360 h, read-out: % Control GALAP
[2] = Viola arvensis, post-emergence, 360 h, read-out: % Control VIOLA
[3] = Stellaria media, post-emergence, 360 h, read-out: % Control STEME
[4] = Matricaria chamomilla, post-emergence, 360 h, read-out: % Control MATCH
[5] = 15 g ai/ha, evaluation 30 days after application
[6] = 24 g ai/ha, evaluation 15 days after application
[7] = 48 g ai/ha, evaluation 15 days after application
[8] = 48 g ai/ha, evaluation 30 days after application
[9] = 95 g ai/ha, evaluation 15 days after application
[10] = Galium aparine, post-emergence, 720 h, read-out: % Control GALAP
[11] = Viola arvensis, post-emergence, 720 h, read-out: % Control VIOLA
[12] = Stellaria media, post-emergence, 720 h, read-out: % Control STEME
[13] = Matricaria chamomilla, post-emergence, 720 h, read-out: % Control MATCH
[14] = 10 g ai/ha, evaluation 15 days after application

Question: Which results are given for CCc1nc2c(Cl)cc(F)c(N3C(=O)C4=C(CCCC4)C3=O)c2s1 [(b3), N-(4-chloro-2-ethyl-6-fluorobenzothiazol-7-yl)-1-cyclohexene-1,2-dicarboximide]?
Answer: pest or weed control at 15 g/ha (Galium aparine; [1]): 33%; pest or weed control at 15 g/ha (Viola arvensis; [2]): 83%; pest or weed control at 15 g/ha (Stellaria media; [3]): 20%; pest or weed control at 15 g/ha (Matricaria chamomilla; [4]): 99%

Question: For COC(=O)c1ccccc1S(=O)(=O)NC(=O)N(C)c1nc(C)nc(OC)n1, which “% Control GALAP” value (Galium aparine; [5]) is on record?
Answer: 47%

Question: What about the “% Control VIOLA” value (Viola arvensis; [5]) of the same compound?
Answer: 40%

Question: And the “% Control STEME” value (Stellaria media; [5])?
Answer: 78%

Question: What about the “% Control MATCH” value (Matricaria chamomilla; [5]) of the same compound?
Answer: 88%

Question: With CCCCC(CC)COP(=O)(CC(CC)CCCC)OCC(CC)CCCC (stereo not shown) [(a), O,O-bis(2-ethylhexyl)(2-ethylhexyl)phosphonate] as the compound, how does the herbicidal activity (plants) read?
Answer: no herbicidal activity

Question: What about the “% Control GALAP” value (Galium aparine; [6]) of the same compound?
Answer: 0%

Question: What about the “% Control GALAP” value (Galium aparine; [7]) of the same compound?
Answer: 0%

Question: And the “% Control GALAP” value (Galium aparine; [8])?
Answer: 0%

Question: What about the “% Control GALAP” value (Galium aparine; [9]) of the same compound?
Answer: 0%

Question: What about the “% Control VIOLA” value (Viola arvensis; [7]) of the same compound?
Answer: 0%

Question: And the “% Control VIOLA” value (Viola arvensis; [8])?
Answer: 0%

Question: What about the “% Control VIOLA” value (Viola arvensis; [9]) of the same compound?
Answer: 0%

Question: And the “% Control STEME” value (Stellaria media; [6])?
Answer: 0%

Question: And the “% Control STEME” value (Stellaria media; [7])?
Answer: 0%

Question: What about the “% Control STEME” value (Stellaria media; [8]) of the same compound?
Answer: 0%

Question: What about the “% Control STEME” value (Stellaria media; [9]) of the same compound?
Answer: 0%

Question: And the “% Control MATCH” value (Matricaria chamomilla; [6])?
Answer: 0%

Question: And the “% Control MATCH” value (Matricaria chamomilla; [7])?
Answer: 0%

Question: What about the “% Control MATCH” value (Matricaria chamomilla; [8]) of the same compound?
Answer: 0%

Question: And the “% Control MATCH” value (Matricaria chamomilla; [9])?
Answer: 0%

Question: O=C(O)CNCP(=O)(O)O [(b9), glyphosate] was tested. Which pest or weed control at 50 g/ha (Galium aparine; [10]) did it give?
Answer: 20%

Question: What about the pest or weed control at 50 g/ha (Viola arvensis; [11]) of the same compound?
Answer: 10%

Question: And the pest or weed control at 50 g/ha (Stellaria media; [12])?
Answer: 25%

Question: What about the pest or weed control at 50 g/ha (Matricaria chamomilla; [13]) of the same compound?
Answer: 28%

Question: Which results are given for C#CCN1C(=O)COc2cc(F)c(N3C(=O)C4CCCCN4C3=O)cc21 (stereo not shown) [(b2), 2-[7-fluoro-3-oxo-4-(2-propynyl)-3,4-dihydro-2H-1,4-benzoxazin-6-yl]perhydroimidazo[1,5-a]pyridine-1,3-dione]?
Answer: pest or weed control at 15 g/ha (Galium aparine; [1]): 35%; pest or weed control at 15 g/ha (Viola arvensis; [2]): 37%; pest or weed control at 15 g/ha (Stellaria media; [3]): 27%; pest or weed control at 15 g/ha (Matricaria chamomilla; [4]): 90%

Question: What does the source list for COc1nc(C)nc(=NC(=O)NS(=O)(=O)c2ccccc2C(=O)O)[nH]1 [metsulfuron]?
Answer: pest or weed control at 3 g/ha (Galium aparine; [10]): 10%; pest or weed control at 3 g/ha (Viola arvensis; [11]): 50%; pest or weed control at 3 g/ha (Stellaria media; [12]): 96%; pest or weed control at 3 g/ha (Matricaria chamomilla; [13]): 97%

Question: Which pest or weed control at 500 g/ha (Galium aparine; [1]) does the source give for COC(=O)c1cc(Oc2ccc(Cl)cc2Cl)ccc1[N+](=O)[O-] [bifenox] here?
Answer: 78%

Question: And the pest or weed control at 500 g/ha (Viola arvensis; [2])?
Answer: 95%

Question: What about the pest or weed control at 500 g/ha (Stellaria media; [3]) of the same compound?
Answer: 15%

Question: What about the pest or weed control at 500 g/ha (Matricaria chamomilla; [4]) of the same compound?
Answer: 63%

Question: For COc1cc(OC)nc(NC(=O)NS(=O)(=O)N(C)S(C)(=O)=O)n1 [(b4), 3-[4,6-dimethoxypyrimidin-2-yl)-1-(N-methyl-N-methylsulfonyl-aminosulfonyl)urea], which pest or weed control at 12 g/ha (Galium aparine; [10]) is on record?
Answer: 42%

Question: What about the pest or weed control at 12 g/ha (Viola arvensis; [11]) of the same compound?
Answer: 20%

Question: And the pest or weed control at 12 g/ha (Stellaria media; [12])?
Answer: 40%

Question: What about the pest or weed control at 12 g/ha (Matricaria chamomilla; [13]) of the same compound?
Answer: 55%

Question: Which “% Control GALAP” value (Galium aparine; [14]) does the source give for C#CCN1C(=O)COc2cc(F)c(N=c3snc4n3CC(C)(C)C4)cc21 [(b1), 6-(6,7-dihydro-6,6-dimethyl-3H,5H-pyrrolo[2,1-c][1,2,4]thiadiazol-3-ylidenimino)-7-fluoro-4-(2-propynyl)-2H-1,4-benzoxazin-3(4H)-one] here?
Answer: 47%

Question: And the “% Control STEME” value (Stellaria media; [14])?
Answer: 70%

Question: And the “% Control MATCH” value (Matricaria chamomilla; [14])?
Answer: 50%

Question: For CCOC(=O)Cn1c(=O)sc2cccc(Cl)c21 [(b8), benazolin-ethyl], which pest or weed control at 200 g/ha (Galium aparine; [10]) is on record?
Answer: 18%

Question: What about the pest or weed control at 200 g/ha (Viola arvensis; [11]) of the same compound?
Answer: 22%

Question: What about the pest or weed control at 200 g/ha (Stellaria media; [12]) of the same compound?
Answer: 88%

Question: For Cc1ccc(NC(=O)N(C)C)cc1Cl [(b7), chlorotoluron], which pest or weed control at 750 g/ha (Galium aparine; [10]) is on record?
Answer: 15%

Question: And the pest or weed control at 750 g/ha (Viola arvensis; [11])?
Answer: 23%

Question: What about the pest or weed control at 750 g/ha (Stellaria media; [12]) of the same compound?
Answer: 85%

Question: And the pest or weed control at 750 g/ha (Matricaria chamomilla; [13])?
Answer: 88%

Question: What does the source list for CC(C)c1ccc(NC(=O)N(C)C)cc1 [(b6), isoproturon]?
Answer: pest or weed control at 750 g/ha (Galium aparine; [10]): 13%; pest or weed control at 750 g/ha (Viola arvensis; [11]): 30%; pest or weed control at 750 g/ha (Stellaria media; [12]): 55%; pest or weed control at 750 g/ha (Matricaria chamomilla; [13]): 83%
